# Experimental data taken from patent US4474811A, “Anti-inflammatory ophthalmic solution and process for preparing the same” (Kakenyaku Kako Co., Ltd., priority 1981, dated 1984).
# Where a name gives a salt, the structure may show the parent alone. Read-outs that look alike come from different tables or passages of the source.
# How the values were obtained:
# [1] = test system: carrageenan-induced edema; settings: administered orally, rat; cited from earlier work
# [2] = test system: quinine or PGs system; settings: compared with known nonsteroidal anti-inflammatory agents; cited from earlier work
# [3] = test system: human eye; assay: Irritation of FP to the human eye (general statement); format: in vivo; settings: concentration of FP above 0.2%
# From the text: Under the coexistence with β-CD or γ-CD, the solubility of FP in a high concentration can be attained and the decrement of the above-mentioned irritation can be attained even by the use of FP in a high concentration. Moreover, an ophthalmic solution containing FP stable for a long term is obtained by coexisting FP with β-CD or γ-CD.
# [4] = test system: intraocular pressure elevation and aqueous humor protein increase; settings: rabbits; arachidonic acid; suspensions, FP as aqueous solution; Invest. Ophthalmol., 15(10), 841 to 844 (1976); cited from earlier work
# [5] = test system: biosynthesis of PGs from arachidonic acid; settings: lung homogenate of guinea pig; cited from earlier work
# [6] = cited from earlier work
# [7] = cited from earlier work; remark: listed apart in the source
# [8] = test system: eye of the rabbits (pupillary diameter); assay: Mydriasis effect of atropine (Test Example 4); format: in vivo, rabbit; settings: 1 w/v % atropine sulfate, 40 μl.
# Experimental: Mydriasis induced by atropine instillation was first observed, assuming that a mydriasis treatment is usually performed prior to operation.
# The test was performed using 5 rabbits, and a drop (40 μl.) of a 1 w/v % solution of atropine sulfate in physiological salt solution was instilled to the right eye of the rabbits, and the change of status of the eye with lapse of time was observed by the photographic determination of pupillary diameter. The pupillary diameter difference [(the pupillary diameter at each time after instillation)--(the pupillary diameter before instillation)] and rate of mydriasis (%), which was calculated according to the following formula, were determined. [formula] The pupillary diameter difference and the rate of mydriasis in FIG. 5 are the mean values as to 5 rabbits.
# [9] = test system: blood-aqueous barrier; settings: adding IM instillation vs adding no IM instillation; cited from earlier work
# [10] = oil preparation; cited from earlier work
# [11] = test system: eye ball; settings: oil preparation, topical instillation to the eye ball; cited from earlier work
# [12] = test system: intraocular pressure; settings: subconjunctival injection, cited from earlier work
compound,measurement,setting,value
"CC(C(=O)O)c1ccc(-c2ccccc2)c(F)c1 (centres unmarked) [FP, 2-(2-fluoro-4-biphenylyl)propionic acid]",anti-inflammatory effect relative to aspirin,[1],250 times
same,anti-inflammatory effect relative to indomethacin,[1],14 times
same,strength of inhibitory effect,[2],the strongest among known nonsteroidal anti-inflammatory agents
same,irritation to the human eye,[3],enhanced
same,inhibitory effect on the intraocular pressure elevation and aqueous humor protein increase,[4],particularly strong inhibitory effects
same,inhibitory effect on biosynthesis of PGs relative to aspirin,[5],"2,280 times"
same,inhibitory effect on biosynthesis of PGs relative to indomethacin,[5],10 times
same,solubility,[6],limited solubility
CC(=O)Oc1ccccc1C(=O)O [aspirin],side effect,"[7]; in vivo, po",digestive trouble
"CN1[C@@H]2CC[C@H]1C[C@@H](OC(=O)C(CO)c1ccccc1)C2 (some centres unmarked) [atropine, atropine sulfate]",time to maximum pupillary diameter,[8],one
same,change in the maximum pupillary diameter,[8]; even after 6 hours from the instillation,no change
COc1ccc2c(c1)c(CC(=O)O)c(C)n2C(=O)c1ccc(Cl)cc1 [indomethacin],"inhibition on increase of permeability of blood-aqueous barrier after operation, relative to no IM instillation",[9],about 3 times
same,stability of the preparation,[10],poor
same,inhibitory effect on the intraocular pressure elevation and aqueous humor protein increase,[4],particularly strong inhibitory effects
same,feeling in use,[11],bad
same,side effect,[7]; oral administration in large amounts,digestive trouble
COc1ccc(-c2[nH]c3ccccc3c2-c2ccc(OC)cc2)cc1 [indoxole],inhibitory effect on the intraocular pressure elevation and aqueous humor protein increase,[4],particularly strong inhibitory effects
Cc1ccc(Cl)c(Nc2ccccc2C(=O)O)c1Cl [meclofenamic acid],inhibitory effect on the intraocular pressure elevation and aqueous humor protein increase,[4],particularly strong inhibitory effects
polyphloretin phosphate,effect on intraocular pressure,[12]; glaucomatocyclitic crisis,effect of decreasing the intraocular pressure
same,pain,[12],causes pain to a patient and eye pain or smart feeling is strong
